IC50 data for 41 molecules are collected here from patent US8586739B2, “Heterocyclic compounds and their uses” (Amgen Inc., priority 2007, dated 2013).

The test system of this assay is human B cells. Kind of assay: Human B cells proliferation stimulated by anti-IgM (3H thymidine). Format: cell-based. The conditions noted are these: 72 h, purified human B cells, anti-Human IgM + CD40L-LZ. The protocol: Human B Cells Proliferation stimulate by anti-IgM
Isolate PBMCs from Leukopac or from human fresh blood. Isolate human B cells by using Miltenyi protocol and B cell isolation kit II.—human B cells were Purified by using autoMACS® column.
Activation of Human B Cells
Use 96 well Flat bottom plate, plate 50000/well purified B cells in B cell proffer-ation medium (DMEM+5% FCS, 10 mM Hepes, 50 μM 2-mercaptoethanol); 150 μL medium contain 250 ng/mL CD40L-LZ recombinant protein (Amgen) and 2 μg/mL anti-Human IgM antibody (Jackson ImmunoReseach Lab.#109-006-129), mixed with 50 μL B cell medium containing PI3K inhibitors and incubate 72 h at 37° C. incubator. After 72 h, pulse labeling B cells with 0.5-1 uCi/well ^3H thymidine for overnight ˜18 h, and harvest cell using TOM harvester.

What is called IC50 is the midpoint of a concentration-inhibition curve.

With `C[C@H](Nc1ncnc2[nH]cnc12)c1cc2cccc(Cl)c2nc1-c1cccc(F)c1F` [N-((S)-1-(8-Chloro-2-(2,3-difluorophenyl)quinolin-3-yl)ethyl)-9H-purin-6-amine], where the note is “Homo sapiens, B-cell”, the half-inhibitory concentration (IC50) was 0.00759 µM.

With `Clc1cccc2cc(CNc3ncnc4[nH]cnc34)c(Oc3ccccc3)nc12` [N-((8-chloro-2-phenoxy-3-quinolinyl)methyl)-9H-purin-6-amine], the IC50 (Homo sapiens, B-cell) was found to be 0.0262 µM.

In the case of `Fc1ccc(Cl)c(-c2nc3c(Cl)cccc3nc2CNc2ncnc3[nH]cnc23)c1` [N-((5-Chloro-3-(2-chloro-5-fluorophenyl)quinoxalin-2-yl)methyl)-9H-purin-6-amine], the IC50 (Homo sapiens, B-cell) worked out at 0.165 µM.

In the case of `CC(C)c1ccccc1-c1nc2c(Cl)cccc2cc1CNc1ncnc2[nH]cnc12` [N-((8-chloro-2-(2-(1-methylethyl)phenyl)-3-quinolinyl)methyl)-9H-purin-6-amine], the IC50 (Homo sapiens, B-cell) was 0.0176 µM.

For `Cc1cccnc1-c1nc2c(Cl)cccc2cc1CNc1ncnc2[nH]cnc12` [N-((8-chloro-2-(3-methyl-2-pyridinyl)-3-quinolinyOmethyl)-9H-purin-6-amine], the 50% inhibitory concentration (IC50) amounted to 0.079 µM.

Regarding `Cc1ncccc1-c1nc2c(Cl)cccc2cc1CNc1ncnc2[nH]cnc12` [N-((8-chloro-2-(2-methyl-3-pyridinyl)-3-quinolinyl)methyl)-9H-purin-6-amine], the 50% inhibitory concentration (IC50) (Homo sapiens, B-cell) was found to be 0.0134 µM.

`Fc1cccc2nc(-c3ccccc3Cl)c(CNc3ncnc4[nH]cnc34)nc12` [N-((3-(2-Chlorophenyl)-8-fluoroquinoxalin-2-yl)methyl)-9H-purin-6-amine]: the IC50 (Homo sapiens, B-cell) came to 0.177 µM.

Take `C[C@H](Nc1ncnc2[nH]cnc12)c1cc2cccc(Cl)c2nc1-c1cccnn1` [N-((1S)-1-(8-chloro-2-(3-pyridazinyl)-3-quinolinyl)ethyl)-9H-purin-6-amine]: the half-maximal inhibitory concentration (IC50) (Homo sapiens, B-cell) came to 0.018 µM.

Take `C[C@H](Nc1ncnc2[nH]cnc12)c1cc2ccc(F)cc2nc1-c1cc(F)ccc1Cl` [N-((1S)-1-(2-(2-chloro-5-fluorophenyl)-7-fluoro-3-quinolinyl)ethyl)-9H-purin-6-amine]: the IC50 (Homo sapiens, B-cell) turned out to be 0.02 µM.

Turning to `C[C@H](Nc1ncnc2[nH]cnc12)c1cc2ccc(F)cc2[n+]([O-])c1-c1ccccc1` [N-((1S)-1-(7-fluoro-1-oxido-2-phenyl-3-quinolinyl)ethyl)-9H-purin-6-amine], the concentration for half-maximal inhibition (IC50) (Homo sapiens, B-cell) is 0.00464 µM.

For `C[C@H](Nc1ncnc2[nH]cnc12)c1cc2cccc(Cl)c2nc1-c1cscn1` [N-((1S)-1-(8-chloro-2-(1,3-thiazol-4-yl)-3-quinolinyl)ethyl)-9H-purin-6-amine], the IC50 (Homo sapiens, B-cell) was determined as 0.000537 µM.

As to `Fc1cccc(-c2nc3c(Br)cccc3cc2CNc2ncnc3[nH]cnc23)c1` [N-((8-Bromo-2-(3-fluorophenyl)quinolin-3-yl)methyl)-9H-purin-6-amine], the IC50 (Homo sapiens, B-cell) worked out at 0.0688 µM.

In the case of `CS(=O)(=O)c1ccccc1-c1nc2c(Cl)cccc2cc1CNc1ncnc2[nH]cnc12` [N-((8-chloro-2-(2-(methylsulfonyl)phenyl)-3-quinolinyl)methyl)-9H-purin-6-amine], the half-inhibitory concentration (IC50) (Homo sapiens, B-cell) worked out at 0.151 µM.

`Cc1cccc2nc(CNc3ncnc4ccsc34)c(-c3ccccc3Cl)nc12` [N-((3-(2-chlorophenyl)-5-methyl-2-quinoxalinyl)methyl)thieno[3,2-d]pyrimidin-4-amine]: where the note is “Homo sapiens, B-cell”, the 50% inhibitory concentration (IC50) stood at 0.194 µM.

With `CC(C)c1ncncc1-c1nc2c(Cl)cccc2cc1CNc1ncnc2[nH]cnc12` [N-((8-chloro-2-(4-(1-methylethyl)-5-pyrimidinyl)-3-quinolinyl)methyl)-9H-purin-6-amine], the concentration for half-maximal inhibition (IC50) (Homo sapiens, B-cell) is 0.0789 µM.

In the case of `C[C@H](Nc1ncnc2[nH]cnc12)c1cc2cccc(Cl)c2nc1-c1cccc(Cl)c1` [N-((1S)-1-(8-chloro-2-(3-chlorophenyl)-3-quinolinyl)ethyl)-9H-purin-6-amine], the 50% inhibitory concentration (IC50) (Homo sapiens, B-cell) was 0.00552 µM.

As to `FC(F)(F)c1ccccc1-c1nc2c(Cl)cccc2nc1CNc1ncnc2[nH]cnc12` [N-((5-chloro-3-(2-(trifluoromethyl)phenyl)-2-quinoxalinyl)methyl)-9H-purin-6-amine], the IC50 (Homo sapiens, B-cell) worked out at 0.0418 µM.

With `C[C@H](Nc1ncnc2[nH]cnc12)c1cc2cccc(-c3ccccn3)c2nc1-c1ccccn1` [N-((1S)-1-(2,8-di-2-pyridinyl-3-quinolinyl)ethyl)-9H-purin-6-amine], the IC50 (Homo sapiens, B-cell) worked out at 0.0674 µM.

Turning to `CC(C)c1ncccc1-c1nc2c(Cl)cccc2cc1CNc1ncnc2[nH]cnc12` [N-((8-chloro-2-(2-(1-methylethyl)-3-pyridinyl)-3-quinolinyl)methyl)-9H-purin-6-amine], under “Homo sapiens, B-cell”, the IC50 turned out to be 0.0306 µM.

In the case of `CC(C)c1cccc(-c2nc3c(Cl)cccc3cc2CNc2ncnc3[nH]cnc23)c1` [N-((8-chloro-2-(3-(1-methylethyl)phenyl)-3-quinolinyl)methyl)-9H-purin-6-amine], the IC50 (Homo sapiens, B-cell) amounted to 0.305 µM.

With `C[C@H](Nc1ncnc2[nH]cnc12)c1cc2cccc(Cl)c2nc1-c1cnccc1C(N)=O` [3-(8-chloro-3-((1S)-1-(9H-purin-6-ylamino)ethyl)-2-quinolinyl)-4-pyridinecarboxamide], the IC50 (Homo sapiens, B-cell) turned out to be 4.63 µM.

With `C[C@H](Nc1ncnc2nc[nH]c12)c1cc2cccc(F)c2nc1-c1ccccc1Cl` [N-((1S)-1-(2-(2-chlorophenyl)-8-fluoro-3-quinolinyl)ethyl)-7H-purin-6-amine], the IC50 (Homo sapiens, B-cell) stood at 0.0114 µM.

As for `C[C@H](Nc1ncnc2[nH]cnc12)c1cc2cccc(Cl)c2nc1-c1ccccc1Cl` [N-((1S)-1-(8-chloro-2-(2-chlorophenyl)-3-quinolinyl)ethyl)-9H-purin-6-amine], the half-maximal inhibitory concentration (IC50) (Homo sapiens, B-cell) was found to be 0.0036 µM.

Turning to `Clc1cccc2cc(CNc3ncnc4[nH]cnc34)c(-c3nccs3)nc12` [N-((8-chloro-2-(1,3-thiazol-2-yl)-3-quinolinyl)methyl)-9H-purin-6-amine], the 50% inhibitory concentration (IC50) (Homo sapiens, B-cell) amounted to 0.209 µM.

As for `Clc1cccc2cc(CNc3ncnc4[nH]cnc34)c(-c3ccccc3-c3ccccc3)nc12` [N-((2-(2-biphenylyl)-8-chloro-3-quinolinyl)methyl)-9H-purin-6-amine], for the setting “Homo sapiens, B-cell”, the IC50 was determined as 0.165 µM.

As to `Fc1ccc(F)c(-c2nc3c(Cl)cccc3cc2CNc2ncnc3[nH]cnc23)c1` [N-((8-chloro-2-(2,5-difluorophenyl)-3-quinolinyl)methyl)-9H-purin-6-amine], the concentration for half-maximal inhibition (IC50) (Homo sapiens, B-cell) was found to be 0.0382 µM.

On to `C[C@H](Nc1ncnc2[nH]cnc12)c1cc2cccc(C#N)c2nc1-c1cccc(F)c1` [2-(3-fluorophenyl)-3-((1S)-1-(9H-purin-6-ylamino)ethyl)-8-quinolinecarbonitrile], for which, under “Homo sapiens, B-cell”, the concentration for half-maximal inhibition (IC50) amounted to 0.00338 µM.

In the case of `C[C@H](Nc1ncnc2[nH]cnc12)c1cc2cccc(Cl)c2nc1-c1cc(F)ccc1Cl` [N-((1S)-1-(8-chloro-2-(2-chloro-5-fluorophenyl)-3-quinolinyl)ethyl)-9H-purin-6-amine], the IC50 (Homo sapiens, B-cell) was determined as 0.0466 µM.

Take `C[C@H](Nc1ncnc2nc[nH]c12)c1cc2cccc(F)c2nc1-c1cc(F)ccc1F` [N-((1S)-1-(2-(2,5-difluorophenyl)-8-fluoro-3-quinolinyl)ethyl)-7H-purin-6-amine]: where the note is “Homo sapiens, B-cell”, the IC50 was 0.0127 µM.

Take `FC1CCCN(c2nc3c(Cl)cccc3cc2CNc2ncnc3[nH]cnc23)C1` (centres unmarked) [N-((8-chloro-2-(3-fluoro-1-piperidinyl)-3-quinolinyl)methyl)-9H-purin-6-amine]: the IC50 (Homo sapiens, B-cell) was 0.0955 µM.

Regarding `C[C@H](Oc1ncnc2[nH]ccc12)c1cc2cccc(Cl)c2nc1-c1ccccc1` [8-chloro-2-phenyl-3-((1S)-1-(7H-pyrrolo[2,3-d]pyrimidin-4-yloxy)ethyl)quinoline], the IC50 (Homo sapiens, B-cell) was determined as 0.00304 µM.

For `C[C@H](Nc1ncnc2[nH]cnc12)c1cc2cccc(Cl)c2nc1Oc1ccccc1` [N-((1S)-1-(8-chloro-2-phenoxy-3-quinolinyl)ethyl)-9H-purin-6-amine], the IC50 (Homo sapiens, B-cell) is 0.0293 µM.

As to `Clc1cccc2cc(CNc3ncnc4[nH]cnc34)c(-c3cn[nH]c3)nc12` [N-((8-chloro-2-(1H-pyrazol-4-yl)-3-quinolinyl)methyl)-9H-purin-6-amine], the concentration for half-maximal inhibition (IC50) (Homo sapiens, B-cell) worked out at 0.158 µM.

On to `C[C@H](Nc1ncnc2nc[nH]c12)c1cc2cccc(F)c2nc1-c1cccnc1` [N-((1S)-1-(8-fluoro-2-(3-pyridinyl)-3-quinolinyl)ethyl)-7H-purin-6-amine], for which, under “Homo sapiens, B-cell”, the IC50 is 0.0154 µM.

Turning to `Fc1ccc(-c2nc3c(Cl)cccc3cc2CNc2ncnc3nc[nH]c23)cc1` [N-((8-chloro-2-(4-fluorophenyl)-3-quinolinyl)methyl)-7H-purin-6-amine], where the note is “Homo sapiens, B-cell”, the half-inhibitory concentration (IC50) was found to be 0.265 µM.

Turning to `Fc1cccc(-c2cc3c(Cl)cccc3nc2CNc2ncnc3[nH]cnc23)c1` [N-((5-chloro-3-(3-fluorophenyl)-2-quinolinyl)methyl)-9H-purin-6-amine], the concentration for half-maximal inhibition (IC50) (Homo sapiens, B-cell) is 0.13 µM.

As to `C[C@H](Nc1ncnc2[nH]cnc12)c1cc2cccc(Cl)c2nc1-c1cc(F)ccc1OCc1ccccc1` [N-((1S)-1-(2-(2-(benzyloxy)-5-fluorophenyl)-8-chloro-3-quinolinyl)ethyl)-9H-purin-6-amine], where the note is “Homo sapiens, B-cell”, the 50% inhibitory concentration (IC50) stood at 0.0168 µM.

For the molecule `C[C@H](Nc1ncnc2[nH]cnc12)c1cc2cccc(F)c2nc1-c1ccccc1` [(S)—N-(1-(8-fluoro-2-phenylquinolin-3-yl)ethyl)-9H-purin-6-amine], the concentration for half-maximal inhibition (IC50) (Homo sapiens, B-cell) came out at 0.00142 µM.

With `Fc1cccc(-c2nc3c(Cl)cccc3nc2CNc2ncnc3[nH]cnc23)c1` [N-((5-Chloro-3-(3-fluorophenyl)quinoxalin-2-yl)methyl)-9H-purin-6-amine], where the note is “Homo sapiens, B-cell”, the half-inhibitory concentration (IC50) came out at 0.0719 µM.

`C[C@H](Nc1ncnc2[nH]cnc12)c1cc2cccc(Cl)c2nc1-c1cccc(F)n1` [N-((1S)-1-(8-chloro-2-(6-fluoro-2-pyridinyl)-3-quinolinyl)ethyl)-9H-purin-6-amine]: the concentration for half-maximal inhibition (IC50) (Homo sapiens, B-cell) was 0.0031 µM.

In the case of `C[C@H](Nc1ncnc2[nH]cnc12)c1cc2cccc(Cl)c2nc1-c1ccccc1` [N-((1S)-1-(8-chloro-2-phenyl-3-quinolinyl)ethyl)-9H-purin-6-amine], the IC50 (Homo sapiens, B-cell) turned out to be 0.00265 µM.
